Test results from publication PMC10812672, “Short Antimicrobial Peptide Derived from the Venom Gland Transcriptome of Pamphobeteus verdolaga Increases Gentamicin Susceptibility of Multidrug-Resistant Klebsiella pneumoniae” (Antibiotics, 2023).
Ends that are not written are not given here.

Tested on: human peripheral blood mononuclear cells (hPBMCs)
Test: Cytotoxicity, MTT
Format: cell-based
Description: The cytotoxicity of PvAMP66 was assessed in vitro against human red blood cells (hRBCs) and human peripheral blood mononuclear cells (hPBMCs) using concentrations of 1.56–200 µM. At the highest concentration, PvAMP66 induced 60% hemolysis in human erythrocytes (Figure 3a), and a decrease in viability of approximately 40% in the hPBMCs (Figure 3b). […] Ratios between CC50 or HC50, and the IC50 values registered for the bacterial strains, indicate that PvAMP66 has higher selectivity for interacting with prokaryotic membranes (Table 4).
Ten milliliters of fresh blood was mixed with 10 mL of PBS pH 7.20 in 50 mL conical tubes. Then, 10 mL of Ficoll® density gradient media were placed in 50 mL conical tubes, and then the blood/PBS solution was gently poured over without disturbing the interface. The mixture was centrifuged at RT and 400× g for 30 min with the brake off (Universal 32 R, Hettich Group, Kirchlengern, Westphalia, Germany), and the upper plasma phase was removed and discarded. The leukocyte phase was gently removed from the conical tube, placed in a new 50 mL conical tube, and density gradient media was removed in two washings with 25 mL of PBS pH 7.20 at RT and 400× g for 10 min. Cells were then resuspended in 3 mL of RPMI media. Subsequently, 10 µL of this suspension was mixed with 90 µL of Trypan blue in a 0.50 mL polypropylene vial. The cell count and cell viability were determined in a Neubauer counting chamber. Then, cells were suspended to 3 × 10^5 cells/mL, ensuring that cell viability remained above 98%. All peptides were diluted in RPMI media to final concentrations ranging between 1.56 and 200 µM. Subsequently, 20 µL of each peptide solution was added in triplicate into 96-well plates, along with 80 µL of fresh RPMI media. For negative and positive cytotoxicity controls, six wells received 20 µL of PBS and 30% v/v H2O2, respectively. Blank wells without cells were also included. Next, 100 µL of a cell suspension 3 × 10^5 cells/mL was added to each well, and the plates were incubated for 24 h at 37 °C in a 5% CO2 atmosphere (Heratherm, ThermoFisher Scientific, Waltham, MA, USA). After 24 h, plates were centrifuged at RT and 1000× g for 10 min (Sorvall Legend XFR, ThermoFisher Scientific, Waltham, MA, USA). Then, 180 µL of the supernatant was collected, and 28 µL of a 4 mg/mL sterile MTT solution was added. The plates were then incubated for 4 h at 37 °C in a 5% CO2 atmosphere (Heratherm, ThermoFisher Scientific, Waltham, MA, USA). After the second incubation, 130 µL of DMSO was added to each well and plates were agitated at 50 rpm. The solubilized formazan was then measured at 570 nm using a Multiskan SkyHigh spectrophotometer (ThermoFisher Scientific, Waltham, MA, USA). All peptides were evaluated in three independent assays and the viability percentages were calculated as follows: Viability %=1−AbsPEPTIDE−Median AbsBLANK/Median AbsH2O2−Median AbsBLANK×100

Q: For WKKIKKFF-NH2 [PvAMP66], which “CC50 (Cytotoxic Concentration 50)” value (hPBMCs in RPMI, 24 h 37 °C 5% CO2, MTT 570 nm, 1.56–200 µM, logistic regression, 95% CI in parentheses, ND = above evaluated range) is on record?
A: 172.03 µM

Q: And the decrease in viability (hPBMCs, highest concentration (200 µM), 24 h, MTT)?
A: approximately 40%

Q: And the CC50/IC50 (selectivity index vs IC50 E. coli ATCC 25922)?
A: 4.49

Q: And the CC50/IC50 (selectivity index vs IC50 K. pneumoniae ATCC BAA-1705)?
A: 3.78

Q: What about the CC50/IC50 (selectivity index vs IC50 MDR K. pneumoniae) of the same substance?
A: 10.89

Q: What about the CC50/IC50 (selectivity index vs IC50 P. aeruginosa ATCC 9027) of the same substance?
A: 13.58

Q: And the CC50/IC50 (selectivity index vs IC50 S. aureus ATCC 29213)?
A: 6.24
